Source: paper doi:10.1101/2025.10.01.679885v1, “Kinetic and thermodynamic analysis of PKA-R–cAMP interactions in crude media using focal molography” (biorxiv, 2025)
Where two headings read alike, the source gives them in different places.

Columns and labels:
[1] = target: T1, PKA-R (bovine RIα 92-260; bRIα 92–260) (Bos taurus, UniProt P00514); test: biochemical; set-up: focal molography, PKA-R binding to immobilized cAMP analogue, multi-cycle kinetics, 20 °C, buffer A or 50% human serum; details: 20 °C, mean of three replicates; for koff: read-out: koff [10^-2 s^-1]; for kon: read-out: kon [10^5 M^-1 s^-1]
T1 construct: gene PRKAR1A; expressed in E. coli BL21 (DE3) RIL
T1 sequence (P00514 93-261): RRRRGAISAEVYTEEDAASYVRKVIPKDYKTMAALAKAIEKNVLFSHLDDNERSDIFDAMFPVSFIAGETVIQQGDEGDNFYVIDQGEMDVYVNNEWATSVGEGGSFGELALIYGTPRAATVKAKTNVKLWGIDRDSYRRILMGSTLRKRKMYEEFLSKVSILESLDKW
Description: In order to determine the kinetic parameters of the PKA-R–cAMP interaction, multi cycle kinetic experiments were conducted in both buffer and 50% human serum at 20^◦C with intermediate regeneration. […] The sensor maintained reliable performance in both conditions, with no evidence of non-specific binding in serum. During these experiments, optimal experimental settings were refined iteratively to achieve the ideal flow rates and best transition times between association and dissociation phase. […] To mitigate this, buffer A was supplemented with bovine serum albumin (BSA) at a concentration of 1 mg/mL, which successfully eliminated sample depletion. […] Nevertheless, subtle differences in the association rate constant (kon) and dissociation rate constant (koff) are evident between the two media. These variations likely stem from the complex biological environment in serum, where interactions with additional serum components may slightly alter the binding dynamics. To ensure that the extracted kinetic parameters accurately represent the specific PKA-R–cAMP interaction, only the initial 15% of the dissociation phase was used to determine koff, thereby minimizing the influence of incomplete dissociation due to the residual sticking of the protein to the surface. Table 2 summarizes the triplicate kinetic measurements for both 6-AH-cAMP and 8-AHA-cAMP in buffer and serum. The equilibrium dissociation constants (KD) remain in the nanomolar range under all conditions. In this study, we use focal molography to investigate the interaction between the cAMP binding domain A of the bovine R subunit Iα of PKA (bRIα 92–260) (PKA-R) and cyclic AMP (cAMP) analogues in both buffer and 50% human serum. The R-subunit inhibits protein kinase activity of the catalytic subunit of PKA by direct binding. By quantifying kinetic and thermodynamic parameters across a physiological temperature range, we examine how the biological environment alters the enthalpic and entropic contributions to binding.

[2] = target: T1, PKA-R (bovine RIα 92-260; bRIα 92–260); test: biochemical; set-up: Focal molography, immobilised cAMP analogue, PKA-R as analyte; KD at 293 K from van't Hoff fit; details: 293 K, van't Hoff fit
Description: In this study, we use focal molography to investigate the interaction between the cAMP binding domain A of the bovine R subunit Iα of PKA (bRIα 92–260) (PKA-R) and cyclic AMP (cAMP) analogues in both buffer and 50% human serum. The R-subunit inhibits protein kinase activity of the catalytic subunit of PKA by direct binding. By quantifying kinetic and thermodynamic parameters across a physiological temperature range, we examine how the biological environment alters the enthalpic and entropic contributions to binding. […] In order to determine the kinetic parameters of the PKA-R–cAMP interaction, multi cycle kinetic experiments were conducted in both buffer and 50% human serum at 20^◦C with intermediate regeneration. […] The sensor maintained reliable performance in both conditions, with no evidence of non-specific binding in serum. During these experiments, optimal experimental settings were refined iteratively to achieve the ideal flow rates and best transition times between association and dissociation phase. […] To mitigate this, buffer A was supplemented with bovine serum albumin (BSA) at a concentration of 1 mg/mL, which successfully eliminated sample depletion. […] Fig 8 summarizes the resulting thermodynamic parameters calculated at 293 K (see S1 Table for data). For both ligands, binding to PKA-R remains highly favorable in both media, with ΔG values around −10 kcal/mol yielding similar affinities. However, the underlying driving forces appear to differ between buffer and serum. […] In contrast, the interaction in 50% serum becomes more enthalpy driven for both ligands. For 6-AH-cAMP, ΔH drops to −7.4 kcal/mol, while the entropic contribution increases to −2.6 kcal/mol. For 8-AHA-cAMP, the transition is even more striking: binding becomes entirely enthalpy driven in serum, with an unfavorable entropy change (−T ΔS = 1.2 kcal/mol) and a strong enthalpic contribution (ΔH = −11.3 kcal/mol). All thermodynamic parameters were extracted from the linear fits to the van’t Hoff plots via standard error propagation from the covariance matrix returned by the linear regression. Specifically, standard deviations for ΔH, ΔS, and ΔG were calculated using the variances and covariances of the fitted slope and intercept. The reported KD values represent the predicted equilibrium dissociation constants at 293 K based on the linear fits, with associated uncertainties derived from the propagated variance in ln(KD).

[3] = 50% human serum, read-out: KD [nM] Focal Mol. (Serum)
[4] = buffer, read-out: KD [nM] Focal Mol. (Buffer)

Row | Kd ([1]; 50% human serum) | koff ([1]; 50% human serum) | kon ([1]; 50% human serum) | koff ([1]; buffer A) | kon ([1]; buffer A) | Kd [2, 3] | Kd [2, 4] | SMILES
1 | 25.4 nM | 0.0122 s⁻¹ | 506000 M⁻¹ s⁻¹ | 0.013 s⁻¹ | 448000 M⁻¹ s⁻¹ | 36.6 ± 0.4 nM | 29.5 ± 0.9 nM | NCCCCCCNc1ncnc2c1ncn2[C@@H]1O[C@@H]2COP(=O)(O)O[C@H]2[C@H]1O [6-AH-cAMP, N^6-(6-Aminohexyl)adenosine-3^′,5^′-cyclic monophosphate]
2 | 33.9 nM | 0.0165 s⁻¹ | 487000 M⁻¹ s⁻¹ | 0.0129 s⁻¹ | 389000 M⁻¹ s⁻¹ | 31 ± 3.4 nM | 25.5 ± 2.5 nM | NCCCCCCNc1nc2c(N)ncnc2n1[C@@H]1O[C@@H]2COP(=O)(O)O[C@H]2[C@H]1O [8-AHA-cAMP, 8-(6-Aminohexylamino)adenosine-3^′,5^′-cyclic monophosphate]
